assay: Human HepG2 cell viability assay in 384 well format; assay type: toxicity, cell-based; parameters: dose 125 nL, time 70.5 hour; concentration not given beside the values; conditions: HepG2 cells, read-out: Inhibition

SMILES	cytotoxicity at 70.5 h
CN(C)C1Cc2ccccc2N(S(=O)(=O)c2cccc(C#N)c2)C1 (configuration not stated)	-4.2%
CCOCc1nccc(-c2ccc(OCC)c(C(=O)O)c2)n1	2.25%
CCOCC1CN(C(=O)c2ccco2)Cc2cnn(CC)c21 (configuration not stated)	12.3%
Cc1cnn(CCNCC(O)COc2ccc(Cl)cc2Cl)c1 (configuration not stated)	-2.81%
COc1ccc(C(=O)NCc2cccnc2N2CCOCC2)o1	-0.423%
COCC(=O)N1CCN(CC2CC2)c2ncccc2C1	15.5%
CS(=O)(=O)NCC1CCCN(C(=O)c2cccc(F)c2)C1 (configuration not stated)	-6.44%
COc1cccn(Cc2nnc(-c3cccnc3)o2)c1=O	-1.16%
CCC[C@@H]1CN(S(=O)(=O)c2ccc3[nH]c(=O)[nH]c3c2)C[C@H]1NC(C)=O	-1.53%
CC(C)c1noc(C(C)N2CCN(Cc3ccsc3)CC2)n1 (configuration not stated)	-5.78%
COc1cc(Br)c(CNc2ccn(CCC(N)=O)n2)cc1OC	-4.79%
COC(=O)c1ccc(N2CCN(C(=O)C3CCC3)C(C)C2)cc1 (configuration not stated)	17.6%
COc1ccc(-n2ccc(C(=O)NCCn3ccnc3)n2)cc1	-8.04%
CS(=O)(=O)NCCC1CCCCN1C(=O)NCCc1ccccn1 (configuration not stated)	-14.3%
Cc1n[nH]cc1CNCc1ccnc(OCC(F)(F)F)c1	-7.14%
c1ncn(CC2CCCN2Cc2csc(C3CCCCC3)n2)n1 (configuration not stated)	1.84%
COc1cccc(N2CCN(C(=O)CN(C)c3cnccn3)CC2)c1	-1.38%
CC(=O)Nc1ncc(S(=O)(=O)Nc2ccccc2F)s1	-9.78%
Cc1nnc(CN2CCC3(CCC(=O)N([C@H]4CC[C@H](O)CC4)C3)CC2)o1	-8.57%

SMILES	cytotoxicity at 70.5 h
CCN1CCN(Cc2nc(C)no2)CC1	12.7%
Cc1ccc2oc(CNC(C)c3nnc4n3CCCC4)cc2c1 (configuration not stated)	5.79%
O=C(NS(=O)(=O)c1ccccc1C(F)(F)F)c1cccc2c1OCCO2	-75.1%
O=C(CN1CCN(CC(O)C2CC2)CC1)NCc1ccc(F)cc1 (configuration not stated)	-0.525%
Cn1cc(C2CC(=O)NC23CCN(C(=O)c2ccc[nH]2)CC3)cn1 (configuration not stated)	-1.53%
CCOC(=O)N1CCN(C(=O)c2snnc2-c2ccc(OC)cc2)CC1	-11.6%
CCn1cc(N2Cc3nc(N4CCCC4)ncc3C2=O)cn1	0.0553%
CC(C)(CN1CCC(Cc2ccc(CO)cc2)C1)N1CCOCC1 (configuration not stated)	-10.6%
Fc1ccc(CN2CCC3(CC2)CC(c2cccnc2)CO3)cc1 (configuration not stated)	-0.689%
O=C(NCCC1COc2ccccc2O1)c1ccc(-c2cc[nH]n2)nc1 (configuration not stated)	-4.68%
O=C(c1ccncc1)N1CC[C@@H]2[C@@H](CC1)OCCN2c1cccnc1	-7.36%
Cc1nc(C(C)C)cc(N2CCC3(CCC(=O)N(CC4CC4)C3)CC2)n1	-11%
COc1ccnc(N2CCN(C(=O)COCC(F)(F)F)CC2)n1	13%
CC1CN(C)CCN1C(=O)c1cccn1Cc1ccncc1 (configuration not stated)	-0.0265%
Cc1nn(C)c(N(C)C)c1CNC1CCOc2c(F)cccc21 (configuration not stated)	13.3%
CC1CN(CCc2ccncc2)CCO1 (configuration not stated)	3.7%
O=C(c1cc(=O)c(OCc2ccccc2F)co1)N1CCCC1	1.91%
CCN(C)S(=O)(=O)NCC1CCN(Cc2ccccc2F)C1 (configuration not stated)	-10.5%
COc1ccc(-c2cnc(CN3CCCC3Cn3cncn3)o2)cc1 (configuration not stated)	-6.4%

SMILES	cytotoxicity at 70.5 h
Cc1ncc(CNCC(C)O)c2cc(C(=O)c3ccc(Br)cc3)oc12 (configuration not stated)	-16.1%
COc1ccc(C(=O)NS(=O)(=O)c2cncc(Br)c2)cc1OC	-3.31%
COc1cc(C)nc(N2CCN(C(=O)c3ccc(Cl)o3)CC2)n1	-7.01%
Fc1ccc(CN2CCc3ncnc(C4CC4)c3CC2)cc1	1.98%
O=C(NCCc1cccs1)[C@]12COC[C@H]1CN(Cc1ccccn1)C2	39.1%
Cc1nc(CN(C)S(=O)(=O)c2ccccc2C(F)(F)F)no1	-5.33%
Cc1cc(C)c2cc(CNCC3CCCO3)c3nn(C)c(=O)n3c2c1 (configuration not stated)	-6.37%
CC1CCN(c2ccc(C(=O)N3CCCC3c3nncn3C)cn2)CC1 (configuration not stated)	8.02%
Cc1ncsc1C(=O)N1CCCN(Cc2cscn2)CC1	-12.1%
N#Cc1ccnc(N2CCN(C3CCOC3=O)CC2)c1 (configuration not stated)	14.2%
CCn1ccnc1CNCc1ccc(C)cc1OC(C)(C)C	-11%
COc1ncccc1C(=O)N1CCC(CNC(C)=O)CC1	-11.5%
Cc1cc(CS(=O)(=O)N(C)C(C)c2ccc(Cl)cc2)on1 (configuration not stated)	-11.1%
CNC(=O)[C@@]12CCC3(CCN(S(C)(=O)=O)CC3)[C@@H]1CN(S(C)(=O)=O)C2	1.46%
CCN1CCN(C[C@@H]2CN(c3ncccc3F)C[C@@H]2CO)CC1	23.4%
c1cnc(NC[C@H]2OC[C@@H]3CCN(Cc4cccnc4)C[C@@H]32)nc1	-12.6%
Cc1noc(NCc2cn(C)nc2-c2ccncc2)n1	-11.4%
Cc1nc(COCc2cnc3n2CCN(C(=O)C2CC2)C3C)cs1 (configuration not stated)	11.4%
COC(=O)CC(c1cccc(OC(F)F)c1)c1oc(C)cc(=O)c1O (configuration not stated)	7.18%
